We go through 3 compounds from patent US7351708B2, “Pyrrolo [2,3-b] pyridine derivatives” (Hoffmann-La Roche Inc., priority 2005, dated 2008).

pKi: −log10 of the molar value.

For the assay, the target named is T1, histamine 3 receptor (H3R) (Homo sapiens, UniProt Q9Y5N1).
T1 construct: expressed in transfected cells; host or cells: CHO cells (HR3-CHO cell line), membranes
T1 sequence (Q9Y5N1 whole entry): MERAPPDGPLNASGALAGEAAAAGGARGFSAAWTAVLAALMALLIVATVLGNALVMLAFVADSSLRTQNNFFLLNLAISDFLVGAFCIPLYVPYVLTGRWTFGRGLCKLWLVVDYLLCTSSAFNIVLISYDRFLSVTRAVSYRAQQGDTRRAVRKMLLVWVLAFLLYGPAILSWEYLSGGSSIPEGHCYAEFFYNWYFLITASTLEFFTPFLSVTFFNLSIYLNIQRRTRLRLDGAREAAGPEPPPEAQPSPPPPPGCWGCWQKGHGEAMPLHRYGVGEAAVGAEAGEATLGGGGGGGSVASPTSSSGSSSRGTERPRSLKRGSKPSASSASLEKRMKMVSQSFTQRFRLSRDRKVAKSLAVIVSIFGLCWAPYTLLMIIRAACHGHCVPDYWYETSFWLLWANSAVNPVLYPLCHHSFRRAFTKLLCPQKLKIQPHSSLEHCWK
Put plainly: Binding assay with 3H-(R)α-Methylhistamine (competition binding, membranes of the human HR3-CHO cell line). As to conditions: competition against 3H(R)α-Methylhistamine (1 nM), Ki calculated from IC50 by Cheng-Prusoff. The procedure:
Binding Assay with ^3H—(R)α-Methylhistamine
Saturation binding experiments were performed using HR3-CHO membranes prepared as described in Takahashi, K, Tokita, S., Kotani, H. (2003) J. Pharmacol. Exp. Therapeutics 307, 213-218.
An appropriate amount of membrane (60 to 80 μg protein/well) was incubated with increasing concentrations of ^3H(R)α-Methylhistamine di-hydrochloride (0.10 to 10 nM). Non specific binding was determined using a 200 fold excess of cold (R)α-Methylhistamine dihydrobromide (500 nM final concentration). The incubation was carried out at room temperature (in deep-well plates shaking for three hours). The final volume in each well was 250 μl. The incubation was followed by rapid filtration on GF/B filters (pre-soaked with 100 μl of 0.5% PEI in Tris 50 mM shaking at 200 rpm for two hours). The filtration was made using a cell-harvester and the filter plates were then washed five times with ice cold washing buffer containing 0.5 M NaCl. After harvesting, the plates were dried at 55° C. for 60 min, then we added scintillation fluid (Microscint 40, 40 microl in each well) and the amount of radioactivity on the filter was determined in Packard top-counter after shaking the plates for two hours at 200 rpm at room temperature.
Binding Buffer: 50 mM Tris-HCl pH 7.4 and 5 mM MgCl2x 6H2O pH 7.4. Washing Buffer: 50 mM Tris-HCl pH 7.4 and 5 mM MgCl2x6H2O and 0.5 M NaCl pH 7.4.
Indirect measurement of affinity of H3R inverse agonists: twelve increasing concentrations (ranging from 10 μM to 0.3 nM) of the selected compounds were always tested in competition binding experiments using membrane of the human HR3-CHO cell line. An appropriate amount of protein, e.g. approximately 500 cpm binding of RAMH at Kd, were incubated for 1 hour at room temperature in 250 μl final volume in 96-well plates in presence of ^3H(R)α-Methylhistamine (1 nM final concentration=Kd). […]
All compounds were tested at a single concentration in duplicates. […] Ki's were calculated from IC50 based on Cheng-Prusoff equation (Cheng, Y, Prusoff, WH (1973) Biochem Pharmacol 22, 3099-3108).
In general, pKi refers to −log10 of the Ki, conventionally taken in molar units. For `O=C(NC1CCCCC1)c1cc2ccc(N3CCN(C4CCCC4)CC3)nc2[nH]1` [Example 4, 6-(4-cyclopentyl-piperazin-1-yl)-1H-pyrrolo[2,3-b]pyridine-2-carboxylic acid cyclohexylamide], the pKi is 7.64. Next, `O=C(c1cc2ccc(N3CCN(C4CCCC4)CC3)nc2[nH]1)N1CCCCC1` [Example 1, [6-(4-Cyclopentyl-piperazin-1-yl)-1H-pyrrolo[2,3-b]pyridin-2-yl]-piperidin-1-yl-methanone]: 7.32. Regarding `O=C(c1cc2ccc(N3CCN(C4CCCC4)CC3)nc2[nH]1)N1CCC(O)C1` (stereo not drawn) [Example 8, [6-(4-cyclopentyl-piperazin-1-yl)-1H-pyrrolo[2,3-b]pyridin-2-yl]-(3-hydroxy-pyrrolidin-1-yl)-methanone], the pKi was 7.08.
